This passage reports Papp results from PubChem BioAssay AID1508612.

The data set is described as follows: passive permeability, PAMPA, ADME assay (AID 1508612). As to conditions: pH 7.4, 30.0 min, 50.0 µM. (In general: In PAMPA a lipid-coated filter parts donor from acceptor wells.)

One may read the Papp as a coefficient for how fast a substance crosses the barrier.

As for `CCc1cc(Cl)c(OC)c(C(=O)NC[C@@H]2CCCN2CC)c1O`, the Papp is more than 1000 ×10⁻⁶ cm/s.
Take `Clc1ccc2ncc(-c3cccc(NC4CNC4)n3)n2c1`: the apparent permeability coefficient (Papp) was determined as 182 ×10⁻⁶ cm/s.
`NC(=O)C1CCN(c2nc(-c3ccc(N4CCCCC4)nc3)cs2)CC1` displayed a Papp of 23.9 ×10⁻⁶ cm/s.
Consider `O=C(c1ccccc1)N1CCC(c2nn(-c3ccc(F)cc3)c(=O)[nH]2)CC1`, for which the Papp is 679 ×10⁻⁶ cm/s.
With `O=C(Nc1ccc(OC(F)(F)Cl)cc1)c1cnc(N2CC[C@@H](O)C2)c(-c2ccn[nH]2)c1`, the Papp amounted to 14.6 ×10⁻⁶ cm/s.
`NC(=O)C1CCN(c2ncc(-c3ccc(Br)cc3)s2)CC1`: the apparent permeability (Papp) is 688 ×10⁻⁶ cm/s.
`Cc1ccc(S(=O)(=O)Nc2cnccc2C(=O)Nc2nc(-c3cnn(C)c3)cs2)cc1` came in with a Papp of 54.9 ×10⁻⁶ cm/s.
In turn, `COc1ccc2c(ccn2CCC(=O)Nc2ccc3c(c2)C(=O)N2CCC[C@H]2C(=O)N3)c1` gave an apparent permeability coefficient (Papp) of 22.6 ×10⁻⁶ cm/s.
Then `COC(=O)CNC(=O)c1nc(-c2ccc(F)cc2)c2ccccn12`, with more than 1000 ×10⁻⁶ cm/s.
The compound `CC(C)N(CCCNC(=O)Nc1ccc(C(C)(C)C)cc1)C[C@H]1O[C@@H](n2ccc3c(N)ncnc32)[C@H](O)[C@@H]1O` registered an apparent permeability coefficient (Papp) of 10.7 ×10⁻⁶ cm/s.
Consider `CNc1nc(-c2ccc3c(N)n[nH]c3c2)cc(N2C[C@@H](C(=O)NC3CCCCC3)CC[C@@H]2C)n1`, for which the Papp amounted to 14.4 ×10⁻⁶ cm/s.
For `c1ccc2c(NC3CCCCC3)nc(-c3ccncc3)nc2c1`, the Papp was more than 1000 ×10⁻⁶ cm/s.
In turn, `CC(C)(C)NS(=O)(=O)c1ccc(-c2ccc3[nH]nc(N)c3c2)cc1` came in with a Papp of 564 ×10⁻⁶ cm/s.
As to `Fc1ccc(CN2CCOC[C@H]2c2ncc(-c3ccc(Cl)s3)[nH]2)cc1`, the Papp is more than 1000 ×10⁻⁶ cm/s.
Consider `CCn1cc(C(=O)O)c(=O)c2cnc(N3CCN(C(=S)Nc4ccccc4)CC3)nc21`, for which the Papp was 12.1 ×10⁻⁶ cm/s.
Turning to `CN1C[C@@H]2C[C@H]1CN2c1cc2c(cc1F)c(=O)c(C(=O)O)cn2C1CC1`, the Papp is less than 1 ×10⁻⁶ cm/s.
Compound `Cc1cccc(C)c1C(=O)Nc1cccc([S+](=O)([O-])N2CCCCCC2)c1` registered a Papp of 827 ×10⁻⁶ cm/s.
Turning to `N=c1c2c(n(Cc3ccccc3)c3c1CCC3)CCC2`, the apparent permeability coefficient (Papp) was less than 1 ×10⁻⁶ cm/s.
For the compound `Fc1cc(Nc2nc(-c3ccncc3)nc3ccccc23)ccc1-c1ccc(F)c(F)c1F`, the Papp was 57.5 ×10⁻⁶ cm/s.
Then `Cc1cccc(Nc2nc(NCc3ccco3)c3ccccc3n2)c1`, with 730 ×10⁻⁶ cm/s; and `Cc1cccc(-n2cnc3cc(C(=O)N4CCCC(C)C4)ccc32)c1` (stereo not drawn), with more than 1000 ×10⁻⁶ cm/s; and `CCN(CC)CCCNC(=O)c1oc2c(c1C)-c1nn(Cc3ccc(Cl)cc3)cc1CC2`, with more than 1000 ×10⁻⁶ cm/s.
For the compound `O=C1C(SCCO)=C(SCCO)C(=O)c2ccccc21`, the Papp came out at 108 ×10⁻⁶ cm/s.
Consider `Fc1cccc(CN2CCNc3cc(Nc4ccccc4)ncc3C2)c1`, for which the Papp is less than 1 ×10⁻⁶ cm/s.
Compound `CCOc1ccc(-c2cn3c(n2)sc2cc(C(=O)NCCCN(CC)CC)ccc23)cc1` yielded a Papp of more than 1000 ×10⁻⁶ cm/s.
Regarding `CC(C)CC(=O)Nc1n[nH]c2c1CN(C(=O)C1CCN(C)CC1)C2(C)C`, the Papp is less than 1 ×10⁻⁶ cm/s.
With `CCN1C(=O)c2ccccc2S(=O)c2ccc(C(=O)NCc3ccccc3)cc21` (stereo not drawn), the Papp amounted to 775 ×10⁻⁶ cm/s.
Then `Oc1ccc(CNc2cccc(F)c2)c2cccnc12`, with less than 1 ×10⁻⁶ cm/s; and `O=C(NCC1CCN(Cc2cccc(Cl)c2)CC1)Nc1ccc(F)c(Cl)c1`, with more than 1000 ×10⁻⁶ cm/s; and `Cc1ccc(S(=O)(=O)Nc2cnccc2C(=O)Nc2ccc(-n3cncn3)cc2)cc1`, with 8.29 ×10⁻⁶ cm/s.
As for `Cc1ccc(S(=O)(=O)Nc2cnccc2C(=O)Nc2nc(-c3nc4ccccc4s3)cs2)cc1`, the apparent permeability coefficient (Papp) was 740 ×10⁻⁶ cm/s.
Compound `O=C(Nc1nnc(-c2cccs2)o1)c1ccc(Cl)cc1` displayed a Papp of 126 ×10⁻⁶ cm/s.
In the case of `O=C(Nc1nc(-c2ccccc2)cs1)c1ccncc1NS(=O)(=O)c1c(F)cc(F)cc1F`, the Papp was 459 ×10⁻⁶ cm/s.
As for `CN1CCc2cc3c(cc2C1)OCO3`, the apparent permeability coefficient (Papp) worked out at 316 ×10⁻⁶ cm/s.
For `COCCNCc1ccc(-c2cc3nccc(Oc4ccc(NC(=S)NC(=O)Cc5ccc(F)cc5)cc4F)c3s2)nc1`, the Papp was determined as 361 ×10⁻⁶ cm/s.
Then `COC(=O)c1ccc(Oc2nc3c(c(=O)n(C)c(=O)n3C)n2CCC(C)C)cc1`, with more than 1000 ×10⁻⁶ cm/s; and `CN1CCN(C2=Nc3cc(Cl)ccc3Nc3ccccc32)CC1`, with more than 1000 ×10⁻⁶ cm/s.
Then `Cc1cnc(NC(=O)c2ccc(-c3cccc([N+](=O)[O-])c3)o2)s1`, with 47.9 ×10⁻⁶ cm/s; and `C=C1c2cccc(O)c2C(O)=C2C(=O)[C@]3(O)C(O)=C(C(N)=O)C(=O)[C@@H](N(C)C)[C@@H]3[C@@H](O)[C@H]12`, with less than 1 ×10⁻⁶ cm/s.
In turn, `Cc1ccc(S(=O)(=O)Nc2cnccc2C(=O)Nc2nc(-c3ccc(Cl)c(Cl)c3)cs2)cc1` yielded a Papp of 51.5 ×10⁻⁶ cm/s.
Compound `Cc1ccccc1C(=O)N1CCc2cc(-c3nc(NC(=O)Cc4ccc5c(c4)OCO5)sc3C)ccc21` registered a Papp of 23.9 ×10⁻⁶ cm/s.
`Cc1ccc(C)c(CN2CCC(CNC(=O)Nc3ccc(Br)cc3F)CC2)c1` registered a Papp of more than 1000 ×10⁻⁶ cm/s.
Then `COc1cc2c3cc1Oc1c(O)c(OC)cc4c1[C@@H](Cc1ccc(cc1)Oc1cc(ccc1O)C[C@H]3N(C)CC2)N(C)CC4`, with 327 ×10⁻⁶ cm/s; and `CCc1ccc(NC(=O)c2cc3ncccn3n2)cc1`, with 525 ×10⁻⁶ cm/s.
`CCOc1cc(CNc2ccc(O)cc2)ccc1OCc1ccc(Cl)cc1` registered a Papp of less than 1 ×10⁻⁶ cm/s.
`O=C(c1ccccc1)N1CCC(C(=O)N2CCC(N3Cc4ccccc4C3=O)CC2)CC1` yielded a Papp of 24.9 ×10⁻⁶ cm/s.
In turn, `NC(=O)C1CCN(c2nc(-c3ccccc3[N+](=O)[O-])cs2)CC1` returned a Papp of 109 ×10⁻⁶ cm/s.
For `CCOc1ccccc1N(CC(=O)N1CCOCC1)S(=O)(=O)c1ccc(SC)cc1`, the apparent permeability coefficient (Papp) was 550 ×10⁻⁶ cm/s.
`COC(=O)[C@]12CCC(C)(C)C[C@@H]1[C@@H]1C(=O)C=C3[C@@]4(C)C=C(C#N)C(=O)C(C)(C)[C@@H]4CC[C@@]3(C)[C@]1(C)CC2` returned a Papp of 16.2 ×10⁻⁶ cm/s.
Then `O=C(Cc1cccs1)NCc1nnc2ccc(-c3ccccc3)nn12`, with 226 ×10⁻⁶ cm/s.
Compound `O=C(NCc1ccccc1)C1CCN(c2nc(-c3ccc(Br)cc3)cs2)CC1` showed a Papp of 23.2 ×10⁻⁶ cm/s.
`CC(C)c1nc2oc3c(NCCN(C)C)ncnc3c2c2c1COC(C)(C)C2` came in with a Papp of more than 1000 ×10⁻⁶ cm/s.
Then `O=C(Nc1nc(-c2ccccc2)cs1)c1ccncc1NS(=O)(=O)c1ccc(-c2ccccc2)cc1`, with less than 1 ×10⁻⁶ cm/s; and `COc1c(Cl)cc2c([nH]c3cnccc32)c1NC(=O)c1cccnc1C`, with 440 ×10⁻⁶ cm/s; and `Cc1ccc(NC(=O)CSc2ncc(S(=O)(=O)c3ccc(C(C)C)cc3)c(=O)[nH]2)cc1C`, with 1.8 ×10⁻⁶ cm/s.
In turn, `CCOC(=O)CCNc1cc(N2CCc3ccccc3CC2)nc(-c2ccccn2)n1` came in with a Papp of more than 1000 ×10⁻⁶ cm/s.
`Cc1ccc(-c2nc(NCC(=O)Nc3cccc(C(=O)O)c3)c3ccccc3n2)cc1`: the Papp was less than 1 ×10⁻⁶ cm/s.
Then `CCOc1ccc(CNC(=O)CCCn2nc(C)c3c(C)n(-c4ccc(C)cc4)nc3c2=O)cc1`, with 843 ×10⁻⁶ cm/s; and `Clc1ccc(-c2noc3ncnc(N4CCCCC4)c23)cc1`, with more than 1000 ×10⁻⁶ cm/s.
Then `COc1cccc(C(=O)Nc2nc(-c3nnn(-c4cc(C)ccc4C)c3C)ns2)c1`, with 340 ×10⁻⁶ cm/s; and `CCOc1ccc(CCNC(=O)c2ccnn2Cc2ccccn2)cc1OCC`, with 177 ×10⁻⁶ cm/s; and `CN(C)c1cccc(-c2cnc(Nc3cccnc3)c3c2CCO3)c1`, with more than 1000 ×10⁻⁶ cm/s.
Then `O=C(Nc1ccc(N2CCN(C(=O)c3ccccc3F)CC2)cc1)c1cncc(Br)c1`, with more than 1000 ×10⁻⁶ cm/s; and `CCn1c(-c2nonc2N)nc2cnc(Oc3cccc(NC(=O)c4ccc(OCCN5CCOCC5)cc4)c3)cc21`, with less than 1 ×10⁻⁶ cm/s.
As for `Brc1ccccc1-c1nc(NCc2ccc(-c3cccnc3)cc2)c2ccccc2n1`, the Papp was more than 1000 ×10⁻⁶ cm/s.
For the compound `Cc1noc(C)c1Cc1ccc(C(=O)N2CCc3c(nc4cc(-c5ccccc5)[nH]n4c3=O)C2)o1`, the apparent permeability (Papp) came to 7.01 ×10⁻⁶ cm/s.
Then `Cc1noc(C)c1C(=O)N1CCC2(CCCN(Cc3ccccc3)C2)CC1`, with 449 ×10⁻⁶ cm/s; and `O=C(Nc1ccc(C(=O)N2CCCC2)cc1)c1ccccc1F`, with 139 ×10⁻⁶ cm/s.
The compound `NC(=O)C1CCN(c2nc(-c3cccc(F)c3)cs2)CC1` showed a Papp of 685 ×10⁻⁶ cm/s.
Then `O=C(Oc1ccc[nH]c1=O)c1cc([N+](=O)[O-])cc([N+](=O)[O-])c1`, with 16.2 ×10⁻⁶ cm/s; and `O=C(Cc1c[nH]c2ncc(-c3ccc(Cl)cc3)cc12)NCc1cccnc1`, with more than 1000 ×10⁻⁶ cm/s.
For the compound `CC(C)(C)c1ccc(-c2nc(SCCCOc3ccccc3)n3[nH]c(=O)cc3n2)cc1`, the apparent permeability (Papp) turned out to be 10.1 ×10⁻⁶ cm/s.
`Cn1cnc2c(F)c(Nc3ccc(Br)cc3Cl)c(C(=O)NOCCO)cc21` displayed a Papp of 131 ×10⁻⁶ cm/s.
Then `COc1ccc(O)c(CNc2ccc(S(=O)(=O)Nc3nccs3)cc2)c1`, with 3.74 ×10⁻⁶ cm/s; and `O=c1c2ccccc2nc(/C=C/c2cccnc2)n1Cc1ccccc1`, with more than 1000 ×10⁻⁶ cm/s; and `Cc1cccc(-c2[nH]c(C(C)(C)C)nc2-c2ccc3nccnc3c2)n1`, with 512 ×10⁻⁶ cm/s.
Compound `O=C(CSc1ccccc1)Nc1nnc(COc2ccc(Cl)cc2)s1` returned a Papp of 498 ×10⁻⁶ cm/s.
Compound `N#CC1CCN(c2nc(-c3ccc(Br)cc3)cs2)CC1` returned a Papp of 671 ×10⁻⁶ cm/s.
For the compound `COc1cccc(CNc2ccc(S(=O)(=O)Nc3cccnc3)cc2)c1O`, the Papp came to 632 ×10⁻⁶ cm/s.
For the compound `Cc1cc(C)nc(NC(=S)N2CCN(c3cccc([N+](=O)[O-])c3)CC2)c1`, the Papp was more than 1000 ×10⁻⁶ cm/s.
As to `CCCN1CNc2c(c(=O)[nH]c(=S)n2CCc2cccc(Cl)c2Cl)C1`, the Papp is more than 1000 ×10⁻⁶ cm/s.
Then `Cc1noc(C)c1-c1ccc2ncnc(NCc3cccc(Cl)c3)c2c1`, with 970 ×10⁻⁶ cm/s.
Then `O=C(O)c1ccc(Nc2nc(-c3cc4ccccc4oc3=O)cs2)cc1O`, with 8.62 ×10⁻⁶ cm/s; and `NC(=O)C1CCN(c2nc(-c3ccc(Br)cc3)cs2)CC1`, with 241 ×10⁻⁶ cm/s; and `O=C1CCCC2=C1C1(CCCC1)N=C(Nc1nc3ccccc3o1)N2`, with 294 ×10⁻⁶ cm/s.
In turn, `CCCCCn1c(=O)[nH]c2cc(C(=O)NCCCN3CCC(C)CC3)ccc2c1=O` gave an apparent permeability coefficient (Papp) of 91.7 ×10⁻⁶ cm/s.
Regarding `Cc1cccc(NCc2ccc(O)c3ncccc23)c1`, the Papp is less than 1 ×10⁻⁶ cm/s.
The compound `O=C(Nc1ccc2oc(-c3cccnc3)nc2c1)c1ccc(-c2ccccc2)o1` gave a Papp of 771 ×10⁻⁶ cm/s.
`O=C(Nc1ccc(S(=O)(=O)Nc2nccs2)cc1)c1cccnc1`: the Papp is less than 1 ×10⁻⁶ cm/s.
For the compound `O=C1Nc2cccc(Cl)c2/C1=C\c1cc(Cl)c(O)c(Cl)c1`, the Papp was 93.9 ×10⁻⁶ cm/s.
`COc1ncccc1-c1cc2[nH]ccc2c(C(=O)NCc2c(C)cc(C)[nH]c2=O)n1` yielded a Papp of 472 ×10⁻⁶ cm/s.
Regarding `Cc1ccc(NS(=O)(=O)c2c(C)[nH]c(C)c2C(=O)N2CCCC2)cc1Cl`, the Papp was found to be 387 ×10⁻⁶ cm/s.
Consider `FC(F)(F)c1cccc(Sc2nc(-c3ccccc3)nnc2C(F)(F)F)c1`, for which the Papp worked out at 17 ×10⁻⁶ cm/s.
